# Assays:
# TNNT2 = assay: Nanostring gene expression, hESC-derived cardiomyocytes in monolayer: TNNT2; type: cell-based, human
# Description: (§3) Blank medium, addition of solvents as well as cardiomyocytes cultured for 9 days and day 42 were used as control. Beating of cells was assessed after 48 h, 72 h and 96 h. Cells were harvested following incubation for 10 minutes in RLTplus buffer (Qiagen). Changes in gene expression were determined using a custom nanostring gene panel (NanoString Technologies) according to manufacturer's instruction for the following target sequences including 7 housekeeping genes listed in Table 1.
# (§4) To study the direct impact of antiarrhythmic drugs on the properties of hESC-derived cardiomyocytes, changes in expression level of selected genes were analyzed that are associated with action potential formation (HCN1, HCN4, KCNA5, KCNE4, KCNH7, KCNJ3, KCNJ5, SCN1B, SCN5A), electrical signal propagation (GJA1, GJA5, GJD3), calcium handling (CACNA1C, CACNA1D, CACNA1G, RYR2, PLN), cardiac maturation (HOPX, MYH7, MYL2, TNN13) and cardiac hypertrophy (NPPA, NPPB) as well as pan-cardiomyocyte markers (NKX2-5, TNNT2, ACTA2).
# ACTA2 = assay: Nanostring gene expression, hESC-derived cardiomyocytes in monolayer: ACTA2; type: cell-based, human; settings: 5 days exposure to 0.1 μM and 1 μM amiodarone (FIG. 7)
# Description: as §3, §4
# GJA5 [1] = assay: Nanostring gene expression, hESC-derived cardiomyocytes in monolayer: GJA5; type: cell-based, human; settings: 0.1 μM and 1 μM, 5 days exposure
# Description: as §3, §4
# NPPA [2] = assay: Nanostring gene expression, hESC-derived cardiomyocytes in monolayer: NPPA; type: cell-based, human
# Description: as §3, §4
# NPPA [3] = assay: Gene expression in 3D suspension aggregates 48 h after removal of the agent: NPPA; type: cell-based, human; settings: 10 μM for about 120 h, measured 48 h after treatment, 3D aggregates
# Description: (§1) In order to verify the lasting effect and the robustness across different culture systems, we tested the effect of the antiarrhythmic agents on the gene expression profile of the stem-cell derived cardiomyocytes using 3D suspension aggregates and measured the gene expression 48 h after removal of the anti-arrhythmic agents.
# (§2) The aggregates were subsequently maintained in 6-well suspension plates on an orbital shaker (75 rpm) at a cell density of about 1.5×10^6 cells/ml in 3 mL medium.
# NKX2-5 = assay: Nanostring gene expression, hESC-derived cardiomyocytes in monolayer: NKX2-5; type: cell-based, human
# Description: as §3, §4
# GJA5 [4] = assay: Gene expression in 3D suspension aggregates 48 h after removal of the agent: GJA5; type: cell-based, human; settings: 10 μM for about 120 h, measured 48 h after treatment, 3D aggregates
# Description: as §1, §2
# [5] = system: human induced pluripotent stem cell derived cardiomyocytes (iCell2 cardiomyocytes); assay: Ca2+-recordings, beat-to-beat variability (CV), single agents; type: cell-based; settings: 24 h after withdrawal
# From the text: In order to determine the lasting impact on the electrophysiological properties of the stem-cell derived cardiomyocytes following exposure to anti-arrhythmic agents, we conducted functional cardiomyocyte testing by means of Ca^2+-recordings and determined the arrhythmogenic potential of the stem-cell derived cardiomyocyte population after exposure to the anti-arrhythmic agents. […] (Kazuto Yamazaki et al, Beat-to-Beat Variability in Field Potential Duration in Human Embryonic Stem Cell-Derived Cardiomyocyte Clusters for Assessment of_Arrhythmogenic Risk, and a Case Study of Its Application, Pharmacology & Pharmacy, Vol. 5 No. 1, 2014, pp. 117-128). Of note, all Ca^2+-recordings were conducted at least 24 h after exposure to exclude the known direct effects of the agents via ion channel modulation. […] The cells were delivered as frozen vials and stored until use in liquid nitrogen. All culturing media necessary for thawing and culturing was supplied by the cell supplier. Thawing, plating and cultivation procedures were followed according to the protocol supplied by the manufacturer. Cells were plated directly onto the 384-well Greiner μClear plates coated with fibronectin. […] Media was changed (90%) one day after plating and then every second day and 3 hours before the experiments for the pilot study. […] Treatment was ended by exchanging medium to standard cultivation medium on DIV 6. Recording took place at DIV 7. Experiments were performed at a minimum of n=10 for each compound concentration. For Ca^2+ imaging experiments media was exchanged for the recordings by a HEPES buffered recording solution. A fluorescent Ca^2+ indicator (Cal-520-AM) was applied at a concentration of 2 μM and allowed to accumulate in the cells for 30 min before the buffer was exchanged again to dye-free buffer. Cells were allowed to recover for 10 min at 37° C. in the Hamamatsu FDSS recording system. All experiments were performed at 37° C. The framerate of the camera was set to a minimum of 35 Hz for recording and a binning of 4×4. To assess if the quality was sufficient for the experiments several parameters were reviewed (by-eye inspection), including regularity of the beating, shape and amplitude of the Ca^2+ signals and variability of these parameters between the different wells. Since the cells were spontaneously active, no electrical stimulation was applied. Cells were recorded for 5 min prior to compound application. 200 μM Moxifloxacin was applied after the baseline phase in a single-concentration-per-well fashion, followed by a wash-in phase of 5 min. Fluorescent activity was then recorded for additional 5 min. Moxifloxacin without compound preincubation was included as control (n=18), distributed over multiple plates. […] Coefficient of variation was calculated as where σ denotes the standard deviation and p represents the mean.
# [6] = system: hESC-derived cardiomyocytes; assay: Beating of hESC-derived cardiomyocytes after exposure to antiarrhythmic drugs; type: cell-based, human
# Description: Dissociated cardiomyocytes were seeded in RPMI1640 medium supplemented with 2% B27 and 0.1% Pen/Strep (Gibco) on laminin-521 or geltrex (Life Technologies)-coated plates at a cell density of 1×10^5/cm^2. […] Blank medium, addition of solvents as well as cardiomyocytes cultured for 9 days and day 42 were used as control. Beating of cells was assessed after 48 h, 72 h and 96 h.
# [7] = cited from earlier work
# [8] = 10 nM, proarrhythmic conditions (moxifloxacine)
# [9] = 100 nM, proarrhythmic conditions (moxifloxacine)
Compound,"reduction of CV (beat-to-beat variability) compared to control ([5]; 10 nM, baseline conditions) [%]","reduction of CV (beat-to-beat variability) compared to control [5, 8] [%]",typical plasma concentrations in vivo [7] [µg/mL],"reduction of CV (beat-to-beat variability) compared to control ([5]; 100 nM, baseline conditions) [%]","reduction of CV (beat-to-beat variability) compared to control [5, 9] [%]",other results
CCCCc1oc2ccccc2c1C(=O)c1cc(I)c(OCCN(CC)CC)c(I)c1 [amiodarone],76.5,83.3,–,–,–,"changes of the expression of TNNT2 (TNNT2; 5 days exposure to 0.1 μM and 1 μM amiodarone (FIG. 6)): did not result in changes; changes of the expression of ACTA2 (ACTA2): did not result in changes; upregulation of GJA5 (GJA5 [1]): > 3 fold; reduction in NPPA expression (NPPA [2]; amiodarone treatment, 5 days exposure to 0.1 μM and 1 μM (FIG. 3)): about 3 fold; decrease in NPPA (NPPA [3]): about 2 fold; changes of the expression of NKX2-5 (NKX2-5; 5 days exposure to 0.1 μM and 1 μM amiodarone (FIG. 5)): did not result in changes; increase in GJA5 (GJA5 [4]): about 2.7 fold; beating frequency ([6]; 1 μM): clearly reduced; beating frequency ([6]; 10 μM): abrogated"
"Cc1cccc(C)c1OCC(C)N (stereo not drawn) [Mexiletine, mexiletine]",–,–,0.6 to 1.7,76.79,77.5,–
CC(C)NCC(O)COc1cccc2ccccc12 (stereo not drawn) [propranolol],–,–,0.0021 to 0.3,73.7,88.5,–
"CCN(CC)CC(=O)Nc1c(C)cccc1C [Lidocaine, lidocaine]",–,–,–,80.8,84.7,"expression of TNNT2 (TNNT2; 1 μM, 10 μM and 100 μM lidocaine, 5 days (FIG. 12)): without effecting the expression; NPPA expression (NPPA [2]; 1 μM, 10 μM and 100 μM lidocaine, 5 days, concentration dependent (FIG. 9)): decreased; expression of NKX2-5 (NKX2-5; 1 μM, 10 μM and 100 μM lidocaine, 5 days (FIG. 11)): without effecting the expression"
COCCc1ccc(OCC(O)CNC(C)C)cc1 (stereo not drawn) [metoprolol],79.2,83.2,–,–,–,–
"CC(C)NCC(O)c1ccc(NS(C)(=O)=O)cc1 (stereo not drawn) [Sotalol, sotalol]",–,–,1 to 3,79.4,84.9,–
